Legend:
Assay in all cases: relative viability (nuclei count vs DMSO), 5 days (fraction); higher = more cells survive
[1] = tested on: A-427
Summary of the method: (§1)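 Nuclei were stained with Hoechst during a one-step fixation (final 0.05% Triton X-100, 1% formaldehyde, 1 ug/ml Hoechst) carried out 5 days after dosing, then counted on 4× images. The cells, lung cancer lines in 1536-well plates, had been dosed by pin tool the day after seeding with one drug alone or a fixed anchor-drug dose plus five library-drug doses (not always all listed) in √10 steps. Relative viability is the nuclei count in treated wells divided by that in vehicle wells, and each value is the median of duplicate plates.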

[2] = tested on: BEN
Summary of the method: as §1

[3] = tested on: EKVX
Summary of the method: as §1

[4] = tested on: LC-2-ad
Summary of the method: as §1

[5] = tested on: LCLC-97TM1
Summary of the method: as §1

[6] = tested on: LOU-NH91
Summary of the method: as §1

[7] = tested on: LU99A
Summary of the method: as §1

[8] = tested on: NCI-H1355
Summary of the method: as §1

[9] = tested on: NCI-H1650
Summary of the method: as §1

[10] = tested on: NCI-H1666
Summary of the method: as §1

[11] = tested on: NCI-H1915
Summary of the method: as §1

[12] = tested on: NCI-H1993
Summary of the method: as §1

[13] = tested on: NCI-H2228
Summary of the method: as §1

[14] = tested on: NCI-H2347
Summary of the method: as §1

[15] = tested on: NCI-H23
Summary of the method: as §1

[16] = tested on: NCI-H460
Summary of the method: as §1

[17] = tested on: NCI-H520
Summary of the method: as §1

[18] = tested on: NCI-H650
Summary of the method: as §1

[19] = tested on: NCI-H838
Summary of the method: as §1

[20] = tested on: PC-3 [JPC-3]
Summary of the method: as §1

[21] = tested on: RERF-LC-KJ
Summary of the method: as §1

[22] = tested on: SW 1573
Summary of the method: as §1

## O=c1[nH]c2ccccc2n1C1CCN(CCCC(c2ccc(F)cc2)c2ccc(F)cc2)CC1 [Pimozide] + C[C@@H](Oc1cc(-c2cnn(C3CCNCC3)c2)cnc1N)c1c(Cl)ccc(F)c1Cl [Crizotinib] (partner 1 µM)
[1]; first compound 0.08 µM
  relative viability: 0.802
[1]; first compound 0.253 µM
  relative viability: 0.839
[1]; first compound 0.8 µM
  relative viability: 0.896
[1]; first compound 2.53 µM
  relative viability: 0.845
[1]; first compound 8 µM
  relative viability: 0.878
[2]; first compound 0.08 µM
  relative viability: 1.01
[2]; first compound 0.253 µM
  relative viability: 0.913
[2]; first compound 0.8 µM
  relative viability: 0.846
[2]; first compound 2.53 µM
  relative viability: 0.697
[2]; first compound 8 µM
  relative viability: 0.969
[3]; first compound 0.253 µM
  relative viability: 0.949
[3]; first compound 0.8 µM
  relative viability: 0.895
[3]; first compound 2.53 µM
  relative viability: 0.865
[3]; first compound 8 µM
  relative viability: 0.876
[4]; first compound 0.08 µM
  relative viability: 0.474
[4]; first compound 0.253 µM
  relative viability: 0.441
[4]; first compound 0.8 µM
  relative viability: 0.403
[4]; first compound 2.53 µM
  relative viability: 0.466
[4]; first compound 8 µM
  relative viability: 0.479
[5]; first compound 0.08 µM
  relative viability: 0.337
[5]; first compound 0.253 µM
  relative viability: 0.356
[5]; first compound 0.8 µM
  relative viability: 0.296
[5]; first compound 2.53 µM
  relative viability: 0.424
[5]; first compound 8 µM
  relative viability: 0.413
[6]; first compound 0.08 µM
  relative viability: 0.52
[6]; first compound 0.253 µM
  relative viability: 0.733
[6]; first compound 0.8 µM
  relative viability: 0.73
[6]; first compound 2.53 µM
  relative viability: 0.759
[6]; first compound 8 µM
  relative viability: 0.581
[7]; first compound 0.08 µM
  relative viability: 0.497
[7]; first compound 0.253 µM
  relative viability: 0.521
[7]; first compound 0.8 µM
  relative viability: 0.548
[7]; first compound 2.53 µM
  relative viability: 0.612
[7]; first compound 8 µM
  relative viability: 0.61
[8]; first compound 0.08 µM
  relative viability: 1.08
[8]; first compound 0.253 µM
  relative viability: 0.988
[8]; first compound 0.8 µM
  relative viability: 0.959
[8]; first compound 2.53 µM
  relative viability: 0.937
[8]; first compound 8 µM
  relative viability: 1.06
[9]; first compound 0.08 µM
  relative viability: 0.923
[9]; first compound 0.253 µM
  relative viability: 0.946
[9]; first compound 0.8 µM
  relative viability: 0.791
[9]; first compound 2.53 µM
  relative viability: 0.891
[9]; first compound 8 µM
  relative viability: 0.835
[10]; first compound 0.08 µM
  relative viability: 0.882
[10]; first compound 0.253 µM
  relative viability: 0.913
[10]; first compound 0.8 µM
  relative viability: 1.02
[10]; first compound 2.53 µM
  relative viability: 0.751
[10]; first compound 8 µM
  relative viability: 0.789
[11]; first compound 0.08 µM
  relative viability: 0.971
[11]; first compound 0.253 µM
  relative viability: 0.863
[11]; first compound 0.8 µM
  relative viability: 0.709
[11]; first compound 2.53 µM
  relative viability: 0.863
[11]; first compound 8 µM
  relative viability: 0.784
[12]; first compound 0.08 µM
  relative viability: 0.818
[12]; first compound 0.253 µM
  relative viability: 0.816
[12]; first compound 0.8 µM
  relative viability: 0.816
[12]; first compound 2.53 µM
  relative viability: 0.859
[12]; first compound 8 µM
  relative viability: 0.898
[13]; first compound 0.08 µM
  relative viability: 0.406
[13]; first compound 0.253 µM
  relative viability: 0.572
[13]; first compound 0.8 µM
  relative viability: 0.406
[13]; first compound 2.53 µM
  relative viability: 0.38
[13]; first compound 8 µM
  relative viability: 0.354
[14]; first compound 0.08 µM
  relative viability: 0.807
[14]; first compound 0.253 µM
  relative viability: 0.661
[14]; first compound 0.8 µM
  relative viability: 0.545
[14]; first compound 2.53 µM
  relative viability: 0.517
[14]; first compound 8 µM
  relative viability: 0.51
[15]; first compound 0.08 µM
  relative viability: 0.625
[15]; first compound 0.253 µM
  relative viability: 0.482
[15]; first compound 0.8 µM
  relative viability: 0.517
[15]; first compound 2.53 µM
  relative viability: 0.573
[15]; first compound 8 µM
  relative viability: 0.524
[16]; first compound 0.08 µM
  relative viability: 0.841
[16]; first compound 0.253 µM
  relative viability: 0.671
[16]; first compound 0.8 µM
  relative viability: 0.899
[16]; first compound 2.53 µM
  relative viability: 0.871
[16]; first compound 8 µM
  relative viability: 0.89
[17]; first compound 0.08 µM
  relative viability: 0.817
[17]; first compound 0.253 µM
  relative viability: 0.802
[17]; first compound 0.8 µM
  relative viability: 0.702
[17]; first compound 2.53 µM
  relative viability: 0.819
[17]; first compound 8 µM
  relative viability: 0.675
[18]; first compound 0.08 µM
  relative viability: 0.707
[18]; first compound 0.253 µM
  relative viability: 0.711
[18]; first compound 0.8 µM
  relative viability: 0.74
[18]; first compound 2.53 µM
  relative viability: 0.633
[18]; first compound 8 µM
  relative viability: 0.802
[19]; first compound 0.08 µM
  relative viability: 0.855
[19]; first compound 0.253 µM
  relative viability: 0.808
[19]; first compound 0.8 µM
  relative viability: 0.786
[19]; first compound 2.53 µM
  relative viability: 0.774
[19]; first compound 8 µM
  relative viability: 0.955
[20]; first compound 0.253 µM
  relative viability: 0.878
[20]; first compound 0.8 µM
  relative viability: 0.91
[20]; first compound 2.53 µM
  relative viability: 0.915
[20]; first compound 8 µM
  relative viability: 0.854
[21]; first compound 0.08 µM
  relative viability: 0.809
[21]; first compound 0.253 µM
  relative viability: 0.815
[21]; first compound 0.8 µM
  relative viability: 0.764
[21]; first compound 2.53 µM
  relative viability: 0.581
[21]; first compound 8 µM
  relative viability: 0.705
[22]; first compound 0.08 µM
  relative viability: 0.797
[22]; first compound 0.253 µM
  relative viability: 0.759
[22]; first compound 0.8 µM
  relative viability: 0.803
[22]; first compound 2.53 µM
  relative viability: 0.805
[22]; first compound 8 µM
  relative viability: 0.779
